Experimental data as given in patent US10717964B2, “Synthetic methylotrophy to liquid fuels and chemicals” (University of Delaware, priority 2014, dated 2020).

Columns and labels:
E. coli pACM4_pFRM_GFP = format: cell-based; details: 500 and 1000 μM HCHO, MOPS+0.1% glucose
Excerpt: (§1) GFP expression correlated with HCHO concentration over time. Overnight LB cultures were transferred to MOPS+0.1% glucose for the experiment.

E. coli pETM6_Pfrm_GFP = format: cell-based; details: 2 and 4 mM HCHO, MOPS+0.1% glucose
Excerpt: as §1

[1] = test system: E. coli Rosetta empty vector control (pET21_Empty); assay: Growth of empty vector control E. coli in media spiked with formaldehyde; format: cell-based; details: LB plus formaldehyde (2 mM) or mixture of M9 and LB plus formaldehyde (1.5 mM)
Description: FIGS. 42A-B show growth of E. coli expressing HPS and PHI genes from M. gastri. The ability of E. coli to grow in A) LB or B) mixed M9:LB (3:1) spiked with formaldehyde was assessed. Log phase cultures of E. coli harboring pET_M.g.PHI_HPS (circles) or pET21_Empty (squares) were induced with 0.5 mM IPTG for 3 h before being diluted into test media containing 2 mM formaldehyde (LB) or 1.5 mM formaldehyde (M9:LB). Aliquots were taken from the cultures at the indicated time points to determine the optical density (OD600). Arrows indicate times in which the cultures were spiked with (A) 2 mM or (B) 1.5 mM formaldehyde.
Primers were designed to amplify the Mycobacterium gastri phi-hps operon, which encodes the genes necessary to fix formaldehyde to ribulose-5-phosphate yielding hexulose-6-phosphate, and then convert […] to fructose-6-phosphate. Genes were amplified and initially cloned into the expression vector pET21a (Novagen). This vector utilizes the T7 promoter, and was transformed into the Rosetta strain of E. coli. E. coli Rosetta expressing the M. gastri PHI-HPS operon was compared with an empty vector control for growth in LB with 2 mM formaldehyde (FIG. 42A-B). […] When the same strains were tested in M9 minimal media containing only formaldehyde (0.25 mM) as the sole carbon source, no increase in OD600 was observed (FIG. 43).

[2] = test system: formate dehydrogenase (FDH, fdh) from Clostridium carboxidivorans P7T; details: read-out: Km (for NADH); cited from earlier work
[3] = test system: E. coli pACM4_pFRM_GFP+pETM6-BstMDH; format: cell-based; details: 2000 and 4000 mM methanol, MOPS+0.1% glucose
Excerpt: Overnight LB cultures were transferred to MOPS+0.1% glucose for the experiment.

[4] = substrate: CO; assay: cells, lysate or membranes named; details: other: crude cell extracts of E. coli, in vitro

## C=O [formaldehyde]
E. coli pACM4_pFRM_GFP
  growth: Retarded growth
E. coli pETM6_Pfrm_GFP
  growth: No growth was observed
[1]
  growth: unable to grow

## NC(=O)C1=CN([C@@H]2O[C@H](COP(=O)(O)OP(=O)(O)OC[C@H]3O[C@@H](n4cnc5c(N)ncnc54)[C@H](O)[C@@H]3O)[C@@H](O)[C@H]2O)C=CC1 [NADH]
[2]
  Km: 50 µM

## CO [methanol]
[3]
  growth: Retarded growth

B1: methanol dehydrogenase MDH1 (MDH) from Bacillus stearothermophilus (Geobacillus stearothermophilus) (protein)
chain: MKAAVVNEFKKALEIKEVERPKLEEGEVLVKIEACGVCHTDLHAAHGDWPIKPKLPLIPGHEGVGIVVEVAKGVKSIKVGDRVGIPWLYSACGECEYCLTGQETLCPHQLNGGYSVDGGYAEYCKAPADYVAKIPDNLDPVEVAPILCAGVTTYKALKVSGARPGEWVAIYGIGGLGHIALQYAKAMGLNVVAVDISDEKSKLAKDLGADIAINGLKEDPVKAIHDQVGGVHAAISVAVNKKAFEQAYQSVKRGGTLVVVGLPNADLPIPIFDTVLNGVSVKGSIVGTRKDMQEALDFAARGKVRPIVETAELEEINEVFERMEKGKINGRIVLKLKED
[4]
  Km: 27000 µM
